From ChEMBL document CHEMBL5215000, “Seco B-Type Oligomers from Pinus massoniana Expand the Procyanidin Chemical Space and Exhibit Dental Bioactivity” (2022) come the findings set out here.

For the assay, the system named is Dentine. Briefly: Bio-modification of human mid coronal dentine assessed as fold change in complex modulus at 0.2% w/v incubated for 1 hrs by dynamic mechanical analysis. Type of assay: functional.
For `Oc1cc(O)c(C[C@@H]2Oc3c4c(cc(O)c3[C@H]2c2ccc(O)c(O)c2)O[C@H](c2ccc(O)c(O)c2)[C@@H](O)C4)c(O)c1`, the “fold change (FC)” value is on record as 4.2.
Regarding `Oc1cc(O)c(C[C@H](O)[C@H](c2ccc(O)c(O)c2)c2c(O)cc(O)c3c2O[C@@H](c2ccc(O)c(O)c2)[C@@H](O)C3)c(O)c1`, the “fold change (FC)” value came out at 3.3.
Regarding `Oc1cc(O)c2c(c1)O[C@H]([C@H](c1ccc(O)c(O)c1)c1c(O)cc(O)c3c1O[C@H](c1ccc(O)c(O)c1)[C@@H](O)C3)C2`, the “fold change (FC)” value was 5.2.
`Oc1cc(O)c(C[C@H](O)[C@H](c2ccc(O)c(O)c2)c2c(O)cc(O)c3c2O[C@H](c2ccc(O)c(O)c2)[C@@H](O)C3)c(O)c1`: the “fold change (FC)” value stood at 3.3.
In the case of `Oc1cc(O)c(C[C@H](O)[C@H](c2ccc(O)c(O)c2)c2c(O)cc(O)c3c2O[C@@H](c2ccc(O)c(O)c2)[C@H](O)C3)c(O)c1`, the “fold change (FC)” value came to 3.3.
